We go through two compounds from PMC11806944 (Analytical methods : advancing methods and applications, 2025).

The conditions of series [1]: ref Hazard Substances Data Bank (HSDB); cited from earlier work.
The test system of series [2] is zebrafish embryos. The note with it: Tropical 5D wild-type, in vivo, 35 μM; for Chemical uptake amount as share of the total chemical amount added: 5 day.
The conditions of series [3]: estimated; cited from earlier work.
The test system of another series is embryonic zebrafish. The note with it: cited from earlier work.
The nature of series [4]: Sorption control wells: abiotic losses to polystyrene 96-well microplate. In kind it is physicochemical.
The test system of series [5] is zebrafish embryos. The note with it: ~120 hpf; for Incidence of any effect in embryonic zebrafish: 35 μM exposure with daily UV fluorescence measurement.

Regarding `Oc1ccc2ccccc2c1` [2-hydroxynaphthalene], the “Henry's coefficient” value in series [1] is on record as 2.7 × 10^−8 atm m^3 mol^−1. In the series on zebrafish embryos [2], the “Total uptake mass per zebrafish embryo, corrected for abiotic losses” value was determined as 2.09 ± 0.89 nmol and the “Chemical uptake amount as share of the total chemical amount added” value was “approximately 50%”. For the same compound, the “log Kow” value in series [3] is 2.7. Also, in the series on embryonic zebrafish, the “Lowest observed adverse effect level (LOAEL)” value was 35 µM. Moreover, the “Actual equilibrium media concentration” value in series [4] (control wells, reached after 1 day, ~35 μM nominal) was “approximately 31.5 μM”. In addition, the “Incidence of any effect in embryonic zebrafish” value in the series on zebrafish embryos [5] amounted to 97%. For the same compound, the “Endpoints observed shared by both chemicals” value in the series on zebrafish embryos [5] (35 μM exposure) was “mortality, yolk sac and pericardial edema, and pectoral fin malformation”.
For `c1ccc2nc3ccccc3cc2c1` [acridine, Acridine], the “Henry's coefficient” value in series [1] is 4 × 10^−7 atm m^3 mol^−1. Besides, in the series with zebrafish embryos [2], the “Total uptake mass per zebrafish embryo, corrected for abiotic losses” value came to 0.67 ± 0.26 nmol and the “Chemical uptake amount as share of the total chemical amount added” value is around 21%. The “log Kow” value in series [3] is 3.4. Further, the “Lowest observed adverse effect level (LOAEL)” value with embryonic zebrafish is 35 µM. Moreover, in series [4] (t ≤ 1 day vs t ≥ 1 day), the “Decrease in sorption rate when plates were removed from the shaker table” value turned out to be 2 factor. Also, the “Incidence of any effect in embryonic zebrafish” value in the series on zebrafish embryos [5] was 100%. For the same compound, in the series on zebrafish embryos [5] (35 μM exposure), the “Endpoints observed shared by both chemicals” value was “mortality, yolk sac and pericardial edema, and pectoral fin malformation”; the Further endpoints observed result is “Axis and cranial deformities”.
